Source: patent US12350294B2, “Medium comprising serum replacement, IGF1, STAT3 activator and adrenal gland hormone without BFGF or rock inhibitor for producing corneal endothelial substitute cells from iPS cells and a method thereof” (KEIO UNIVERSITY, priority 2018, dated 2025)

Key:
Assay type in all cases: cell-based, human
[1] = system: iPS cells (FF-I01s04 line); assay: Differentiation induction inhibitory activity of bFGF (quantitative PCR and immunostaining)
Procedure: In the same manner as in Example 1 except that a medium containing bFGF (2 ng/mL) was used, the expression of each gene was quantified. As is clear from the results, when bFGF was added, an increase in ATPA1 or NR3C2 expression was not observed, and therefore an increase in ATP1A1 expression, which is important as the function of corneal endothelial cells, was not observed, either.
The expression of ATP1A1 and ZO-1 in the cells cultured in a medium containing bFGF was examined in the same manner as in Example 2.

[2] = system: iPS cells (FF-I01s04 line); assay: Differentiation induction inhibitory activity of ROCK inhibitor (immunostaining); conditions: medium containing fasudil 50 μM
Procedure: In the same manner as in Example 2 except that a medium containing fasudil (50 μM), which is a ROCK inhibitor, was used, the expression of ATP1A1 and ZO-1 was examined.

iPS cells (FF-I01s04) = assay: Effect of TGF-beta 1 added to the induction medium, immunostaining after passage; conditions: TGF-beta 1 1 ng/mL added to induction medium
Procedure: Using a medium (hereinafter referred to as CECSi cell induction (+T) medium) obtained by adding TGF-beta 1 (R&D System Inc., #240-GMP (1 ng/mL)) to the differentiation induction medium prepared in Example 1, the effect thereof was investigated.
Induction of iPS cells (FF-I01s04) was started using CECSi cell induction medium or CECSi cell induction (+T) medium, and the first passage was performed on day 11 and the second passage was performed on […] from the start of induction. At the time of passage, the cells were collected using Accutase (Nacalai Tesque #12679-54), and suspended and seeded at a density of 1.5×10^5 cells/cm^2 in a 35 mm dish or 100 mm dish coated with iMatrix 511 at a concentration of 3 μg/ml, without changing the previous medium.
At day 15 (after the first passage) and day 17 (after the second passage) from the start of induction, the expression state of N-cadherin and PITX2 was examined by immunostaining in the same manner as in Example 2.

[3] = immunostaining, medium containing bFGF
[4] = quantitative PCR, medium containing bFGF 2 ng/mL, day 12

bFGF: basic fibroblast growth factor
expression of ATP1A1 [1, 3]: remarkably low
expression of ZO-1 and cell shape [1, 3]: Elongated cells poorly expressing ZO-1 appeared
increase in ATP1A1 expression [1, 4]: not observed
increase in ATPA1 or NR3C2 expression [1, 4]: not observed

O=S(=O)(c1cccc2cnccc12)N1CCCNCC1 [fasudil]
expression of ATP1A1 in the cellular membrane [2]: low
expression of ZO-1 and cell shape [2]: Elongated cells poorly expressing ZO-1 appeared

TGF-beta 1: isoform of transforming growth factor beta, protein added to the medium
endothelial morphology after passage (iPS cells (FF-I01s04); day 15 and day 17): could be maintained
expression of N-cadherin after passage (iPS cells (FF-I01s04); day 15 and day 17, after first and second passage): maintained
